Experimental data: patent US20230286973A1, “PROTEIN SECRETION INHIBITORS” (KEZAR LIFE SCIENCES, priority 2020, published 2023)
Read-outs that look alike come from different tables or passages of the source.

Columns and labels:
[1] = tested on: PD1-ss+10aa/Gaussia Luciferase; assay: Dox-Induced PD1-ss-Gluc Assay; format: cell-based; conditions: 24 hr Dox induction, 293FRT/TO cells, read-out: 24 hr Dox Inducible PD1ssGluc 293FRT/TO: Mean IC50
Method in brief: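 Flp-In 293 T-REx cells stably carrying a doxycycline-inducible Gaussia luciferase fused to the PD1 signal sequence plus 10 aa were plated the day before. Compound dilutions in DMSO/media containing doxycycline were then added and incubated at 37 °C, 5% CO2. Data for undefined stereochemistry refer to stereoisomer mixtures.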

[2] = tested on: TNFα-FL/Gaussia Luciferase; assay: Dox Induced TNFα-FL-Gluc Assay; format: cell-based; conditions: for IC50: 24 hr Dox induction, 293FRT/TO cells, read-out: 24 hr Dox Inducible TNFaFLGluc 293FRT/TO: Mean IC50; for 24 hr Dox Inducible TNFaFLGluc 293FRT/TO: TNF/PD1: ratio of TNFaFLGluc IC50 to PD1ssGluc IC50
Method in brief: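 Doxycycline-inducible Gaussia luciferase-tagged full-length TNFα (1-233) was expressed in stable Flp-In 293 T-REx cells. Compounds were co-added with doxycycline and incubated at 37 °C, 5% CO2.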

[3] = tested on: HER3-ss+4aa/Gaussia Luciferase; assay: Dox-Induced Her3-ss-Gluc Assay; format: cell-based; conditions: 24 hr Dox induction, 293FRT/TO cells, read-out: 24 hr Dox Inducible Her3(ss + 4)Gluc 293FRT/TO: Mean IC50
Method in brief: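 Reporter line: Flp-In 293 T-REx, T-REx-regulated HER3-ss+4aa fused to Gaussia luciferase. Compound co-added with doxycycline after overnight plating, 37° C., 5% CO2.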

[4] = tested on: IL-2-FL/Gaussia Luciferase; assay: Dox Induced IL2-FL-Gluc Assay; format: cell-based; conditions: for IC50: 24 hr Dox induction, 293FRT/TO cells, read-out: 24 hr Dox Inducible IL2FLGluc 293FRT/TO: Mean IC50; for 24 hr Dox Inducible IL2FLGluc 293FRT/TO: IL2/PD1: ratio of IL2FLGluc IC50 to PD1ssGluc IC50
Method in brief: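 Doxycycline induces an IL-2(1-153)–Gaussia luciferase fusion in a stable Flp-In 293 T-REx line. Compound exposure runs alongside induction at 37° C.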

[5] = tested on: multiple myeloma cell line NCI-H929; assay: H929 Cell Viability Assay; format: cell-based, human; conditions: Homo sapiens, NCI-H929, 48 h, NCI-H929 cells, Celltiter-Glo
Method in brief: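 Viability is scored by CellTiter-Glo luminescence following a 48-hour treatment at 37° C. Data for structures shown without stereochemistry refer to stereoisomer mixtures.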

[6] = tested on: multiple myeloma cell line U266B1; assay: U266 Cell Viability Assay; format: cell-based, human; conditions: Homo sapiens, U-266, 48 h, U266B1 cells, Celltiter-Glo
Method in brief: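 Viability is measured as luciferase signal from CellTiter-Glo following a 48-hour incubation with compound at 37° C. under 5% CO2. Where structures lack drawn stereochemistry, values refer to stereoisomer mixtures.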

[7] = Liver Microsome Stability Assay (rat); conditions: rat liver microsomes, with NADPH, 1.0 uM compound
Method: (§1) Stability of a compound was assessed in the presence of liver microsomes from various sources—mouse, rat, monkey and human liver microsomes. 1.0 uM compound, 0.4% DMSO in 0.1 M Potassium Phosphate with 1.0 mg/mL liver microsomes, were incubated at 37° C. with or without 1 mM NADPH. The samples were quenched at 0, and 30 minutes.

[8] = Liver Microsome Stability Assay (mouse); conditions: mouse liver microsomes, with NADPH, 1.0 uM compound
Method: as §1

[9] = Liver Microsome Stability Assay (human); conditions: human liver microsomes, with NADPH, 1.0 uM compound
Method: as §1

[10] = Liver Microsome Stability Assay (monkey); conditions: monkey liver microsomes, with NADPH, 1.0 uM compound
Method: as §1

[11] = '<=>' given where both are I.A.

| IC50 ([1]; mean) [nM] | IC50 ([2]; mean) [nM] | IC50 ([3]; mean) [nM] | IC50 ([4]; mean) [nM] | EC50 [5] [nM] | EC50 [6] [nM] | Liver Microsome Stability (Multiple Species): Rat - % Remaining after 30 min w/NADPH [7] [%] | Liver Microsome Stability (Multiple Species): Mouse - % Remaining after 30 min w/NADPH [8] [%] | Liver Microsome Stability (Multiple Species): Human - % Remaining after 30 min w/NADPH [9] [%] | Liver Microsome Stability (Multiple Species): Monkey - % Remaining after 30 min w/NADPH [10] [%] | IC50 [1] [nM] | IC50 [2] [nM] | IC50 [3] [nM] | IC50 [4] [nM] | Compound | 24 hr Dox Inducible IL2FLGluc 293FRT/TO: IL2/PD1 [4, 11] | 24 hr Dox Inducible TNFaFLGluc 293FRT/TO: TNF/PD1 [2] | 24 hr Dox Inducible IL2FLGluc 293FRT/TO: IL2/PD1 [4] | 24 hr Dox Inducible TNFaFLGluc 293FRT/TO: TNF/PD1 [2, 11] |
| --- | --- | --- | --- | --- | --- | --- | --- | --- | --- | --- | --- | --- | --- | --- | --- | --- | --- | --- |
| > 25000 | > 25000 | > 25000 | > 25000 | > 25000 | > 25000 | 37.7 | 26.4 | 20.8 | 9.96 |  |  |  |  | CC(=O)NC/C=C/c1csc(NC(=O)c2cccn2Cc2ccncc2)n1 [Compound E30, (E)-N-(4-(3-acetamidoprop-1-en-1-yl)thiazol-2-yl)-1-(pyridin-4-ylmethyl)-1H-pyrrole-2-carboxamide] | 1 |  |  |  |
|  |  |  |  | > 25000 | > 25000 | 2.24 | 4.41 | 0.21 | 0.14 | 6.16 | 4990 | 785 | 1280 | O=C(Nc1nc(/C=C/c2cn(-c3ccccc3)cn2)cs1)c1cccn1Cc1ccnc(F)c1 [Compound B104, (E)-1-((2-fluoropyridin-4-yl)methyl)-N-(4-(2-(1-phenyl-1H-imidazol-4-yl)vinyl)thiazol-2-yl)-1H-pyrrole-2-carboxamide] |  | 809 | 210 |  |
|  |  |  |  | 1660 | 11100 | 28.3 | 4.79 | 7.55 | 0.84 | 45.9 | 579 | 73 | 87.2 | CN(C)S(=O)(=O)N1CC(Oc2ccc(N3CCC[C@@H]3c3csc(NC(=O)c4cccn4Cc4ccnc(F)c4)n3)cc2)C1 [Compound A148, (R)-N-(4-(1-(4-((1-(N,N-dimethylsulfamoyl)azetidin-3-yl)oxy)phenyl)pyrrolidin-2-yl)thiazol-2-yl)-1-((2-fluoropyridin-4-yl)methyl)-1H-pyrrole-2-carboxamide] |  | 12.6 | 1.9 |  |
|  |  |  |  | 4410 | 7800 | 82.1 | 95.6 | 51.8 | 36.1 | 136 | 3700 | 148 | 366 | C[C@H](N)c1ccc(N2CCC[C@@H]2c2csc(NC(=O)c3cccn3Cc3ccncc3)n2)cc1 [Compound A71, N-(4-((R)-1-(4-((S)-1-aminoethyl)phenyl)pyrrolidin-2-yl)thiazol-2-yl)-1-(pyridin-4-ylmethyl)-1H-pyrrole-2-carboxamide] |  | 27.2 | 2.7 |  |
|  |  |  |  | > 25000 | > 25000 | 1.8 | 7.06 | 0.69 | 0.9 | 220 | > 25000 | > 25000 | > 25000 | Cc1nc(/C=C/c2csc(NC(=O)c3cccn3Cc3ccncc3)n2)co1 [Compound B2, (E)-N-(4-(2-(2-methyloxazol-4-yl)vinyl)thiazol-2-yl)-1-(pyridin-4-ylmethyl)-1H-pyrrole-2-carboxamide] |  | >114 | 110 |  |
| 2210 | 24500 | 3010 | 5550 | 22000 | > 25000 | 3.9 | 15.8 | 7.96 | 5.09 |  |  |  |  | O=C(Nc1nc([C@H]2CCCN2c2ccccc2)cs1)c1cccn1CCCC1CCOC1 (stereo partly drawn) [Compound C92, N-(4-((R)-1-phenylpyrrolidin-2-yl)thiazol-2-yl)-1-(3-(tetrahydrofuran-3-yl)propyl)-1H-pyrrole-2-carboxamide] | 2.5 |  |  | 11.1 |
|  |  |  |  | 2210 | > 25000 | 78.7 | 63.9 | 64.3 | 72.2 | 52.8 | 744 | 93.7 | 109 | Cc1cc(C(=O)Nc2nc([C@H]3CCCN3c3ccc(OC4CCN(C(N)=O)CC4)cc3)cs2)n(Cc2ccnc(F)c2)c1 [Compound A166, (R)-4-(4-(2-(2-(1-((2-fluoropyridin-4-yl)methyl)-4-methyl-1H-pyrrole-2-carboxamido)thiazol-4-yl)pyrrolidin-1-yl)phenoxy)piperidine-1-carboxamide] |  | 14.1 | 2.1 |  |
|  |  |  |  | 469 | 3480 | 2.95 | 5.61 | 8.6 | 0.94 | 71.9 | 316 | 106 | 109 | CC(=O)N1CCC(Nc2ccc(N3CCC[C@@H]3c3csc(NC(=O)c4cccn4Cc4ccnc(F)c4)n3)cc2)CC1 [Compound A147, (R)-N-(4-(1-(4-((1-acetylpiperidin-4-yl)amino)phenyl)pyrrolidin-2-yl)thiazol-2-yl)-1-((2-fluoropyridin-4-yl)methyl)-1H-pyrrole-2-carboxamide] |  | 4.4 | 1.5 |  |
|  |  |  |  | > 25000 | > 25000 | 49.7 | 49.5 | 4.91 | 2.99 | 880 | > 25000 | 10100 | > 25000 | Cc1cc(C(=O)Nc2nc(/C=C/c3cn(C(C)C)cn3)cs2)n(Cc2ccnc(F)c2)c1 [Compound B99, (E)-1-((2-fluoropyridin-4-yl)methyl)-N-(4-(2-(1-isopropyl-1H-imidazol-4-yl)vinyl)thiazol-2-yl)-4-methyl-1H-pyrrole-2-carboxamide] |  | >28.4 | >28 |  |
